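Five concentrations, 48 hours, 96-well plates. Abbreviation: GI50, concentration required for 50% inhibition of growth. The concentration for full growth arrest is given as TGI.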

These results are taken from PubChem BioAssay (NCI).

Some test systems named below: NCI-H522 lung; SW-620 colon; ACHN renal; CCRF-CEM leukemia; SK-MEL-5 melanoma; COLO 205 colon; HCT-116 colon; MDA-N; DU-145 prostate.
Holding throughout (assay): NCI anticancer screen, dose series, 48 h

Regarding `O=C1/C(=C/c2ccc(Cl)cc2)CCCc2ccc(F)cc21`, the GI50 in the assay on NCI-H522 lung was 12.2 µM; in the assay with SW-620 colon, 15.4 µM; in the assay with ACHN renal it was 27.8 µM; in the assay with CCRF-CEM leukemia, 11.5 µM; in the assay with SK-MEL-5 melanoma it was 17.4 µM; in the assay on COLO 205 colon it was 18.7 µM. Moreover, the GI50 in the assay on HCT-116 colon is over 100 µM. Also, the TGI with NCI-H522 lung was found to be 54.5 µM; in the assay on SW-620 colon, 31.6 µM; with ACHN renal, 68.5 µM; in the assay on CCRF-CEM leukemia, 61 µM; in the assay with SK-MEL-5 melanoma, 31.3 µM; with COLO 205 colon, 56.3 µM. Also, the TGI with HCT-116 colon is over 100 µM.
As for `Cn1c2c(c3ccccc31)CCN1C(=O)C34CCCC3CC21S4` (stereo not drawn), the TGI in the assay with NCI-H522 lung, with SW-620 colon, with MDA-N, in the assay with ACHN renal, in the assay with SK-MEL-5 melanoma and with COLO 205 colon was over 100 µM each time. Also, the TGI with DU-145 prostate and in the assay on HCT-116 colon was over 100 µM throughout.
Take `COCC#C[C@@]1(O)CCCCC1CC(OC)OC` (stereo partly drawn): the TGI was 82.5 µM with NCI-H522 lung; over 100 µM with MDA-N; over 100 µM in the assay on ACHN renal; over 100 µM in the assay with CCRF-CEM leukemia; over 100 µM in the assay with SK-MEL-5 melanoma; over 100 µM in the assay with COLO 205 colon. Also, the TGI in the assay on DU-145 prostate and in the assay on HCT-116 colon was over 100 µM throughout.
In the case of `Cc1nnc2n1-c1ccccc1N(Cc1ccccc1)CC2`, the TGI with SW-620 colon was over 100 µM; with MDA-N, over 100 µM; with ACHN renal it was over 100 µM; in the assay with CCRF-CEM leukemia, 90.3 µM; with SK-MEL-5 melanoma it was over 100 µM; with COLO 205 colon it was over 100 µM. Further, the TGI in the assay on DU-145 prostate and with HCT-116 colon was over 100 µM throughout.
For `CC(C)(C)c1cc(/C=C2/NC(=O)NC2=O)cc(C(C)(C)C)c1O`, the TGI with NCI-H522 lung turned out to be 26.4 µM; in the assay on SW-620 colon, 39.3 µM; in the assay on ACHN renal, 24.1 µM; in the assay with CCRF-CEM leukemia, 32.8 µM; in the assay with SK-MEL-5 melanoma, 27 µM; with COLO 205 colon it was 28.5 µM. The TGI with DU-145 prostate is 30.3 µM; in the assay with HCT-116 colon, 30.4 µM.
For the compound `Cc1cnc2[nH]c(-c3cccc(F)c3)cc(=O)c2c1`, the TGI in the assay on NCI-H522 lung is 0.108 µM; in the assay on MDA-N, 0.027 µM; in the assay on ACHN renal, over 100 µM; in the assay on COLO 205 colon, 0.0582 µM; with DU-145 prostate, 1.3 µM.
With `CN(C)CCNc1c([N+](=O)[O-])sc2ccc(Cl)cc12`, the TGI in the assay on NCI-H522 lung is 87.4 µM; in the assay with SW-620 colon, over 100 µM; in the assay with ACHN renal it was over 100 µM; in the assay with CCRF-CEM leukemia, over 100 µM; in the assay on SK-MEL-5 melanoma, over 100 µM; in the assay on COLO 205 colon it was over 100 µM. In the assay with DU-145 prostate, this compound displayed a TGI of over 100 µM.
As for `CCOC(=O)Cn1nnc2cc(Nc3c(C)[n+]([O-])c4cc(F)c(OCC)cc4[n+]3[O-])ccc21`, the TGI with NCI-H522 lung, in the assay on SW-620 colon, with ACHN renal, in the assay with CCRF-CEM leukemia, in the assay on SK-MEL-5 melanoma and in the assay on DU-145 prostate was over 100 µM each time. The compound also had a TGI with HCT-116 colon of over 100 µM.
For the compound `O=[N+]([O-])/C(Cl)=C(/C(Cl)=C(Cl)Cl)N1CCCCC1`, the TGI in the assay with NCI-H522 lung was found to be 23.2 µM; in the assay on MDA-N it was 23.9 µM; in the assay on ACHN renal it was 30.7 µM; in the assay with CCRF-CEM leukemia, 19.7 µM; in the assay on SK-MEL-5 melanoma, 20.2 µM; in the assay on COLO 205 colon it was 22.7 µM. Besides, the TGI in the assay with DU-145 prostate was 27 µM; with HCT-116 colon it was 18.9 µM.
For the compound `Nc1c(S(N)(=O)=O)cc(S(N)(=O)=O)cc1S(N)(=O)=O`, the TGI in the assay with NCI-H522 lung, with SW-620 colon, with MDA-N, in the assay on ACHN renal, with SK-MEL-5 melanoma and in the assay with COLO 205 colon was over 100 µM throughout. In addition, the TGI with DU-145 prostate and in the assay with HCT-116 colon was over 100 µM throughout.
In the case of `CCCCCCc1cc2cc(-c3csc(-c4ccc(OC)cc4)n3)c(=O)oc2cc1O`, the TGI was 34.3 µM in the assay with SW-620 colon; 25.1 µM with ACHN renal; over 100 µM with CCRF-CEM leukemia; 47.7 µM in the assay on SK-MEL-5 melanoma; over 100 µM in the assay on COLO 205 colon; 33.6 µM in the assay on DU-145 prostate. The same compound displayed a TGI with HCT-116 colon of 20.1 µM.
Regarding `Oc1c(OCc2nnc(CCCCCCCCc3nnc(COc4ccc5ccccc5c4O)o3)o2)ccc2ccccc12`, the TGI in the assay on NCI-H522 lung, in the assay on SW-620 colon, in the assay on MDA-N, in the assay on ACHN renal, in the assay with SK-MEL-5 melanoma and in the assay on COLO 205 colon was over 100 µM in each case. Further, the TGI with DU-145 prostate was over 100 µM; in the assay with HCT-116 colon it was 35.6 µM.
Regarding `O=P(OCc1ccccc1)(OCc1ccccc1)C(O)/C=C/c1ccccc1` (stereo not drawn), the TGI came out at 57.7 µM in the assay with NCI-H522 lung; 68.3 µM in the assay on SW-620 colon; 36 µM in the assay on MDA-N; 95.9 µM in the assay with ACHN renal; 34.6 µM in the assay on SK-MEL-5 melanoma; 44.9 µM in the assay on COLO 205 colon. In addition, the TGI is over 100 µM with DU-145 prostate and 39.8 µM with HCT-116 colon.
`C[N+]1(CCN=C=NC2CCCCC2)CCOCC1`: the TGI in the assay with NCI-H522 lung, in the assay on SW-620 colon, with ACHN renal, in the assay with CCRF-CEM leukemia, with SK-MEL-5 melanoma and with COLO 205 colon was over 100 µM in each case. For the same compound, the TGI with DU-145 prostate and with HCT-116 colon was over 100 µM throughout.
In the case of `COc1cc2c3c(cc(Cl)nc3c1OC)C(=O)C(=O)N2`, the TGI with NCI-H522 lung is 14.9 µM; in the assay with SW-620 colon, over 55.5 µM; in the assay with ACHN renal, 27.9 µM; in the assay with CCRF-CEM leukemia, 8.21 µM; in the assay on SK-MEL-5 melanoma it was 32.4 µM; in the assay with COLO 205 colon, 51 µM. In addition, the TGI with DU-145 prostate came to 30.8 µM; with HCT-116 colon, 13.6 µM.
For `CCCCCCCCCCCCOCCOCCOCCOCCOCCOCC(=O)NC(Cc1ccccc1)C(=O)Oc1ccc([N+](=O)[O-])cc1` (stereo not drawn), the TGI with NCI-H522 lung, in the assay with SW-620 colon, in the assay on MDA-N, with ACHN renal, with CCRF-CEM leukemia and with SK-MEL-5 melanoma was over 100 µM in each case. The TGI is 35.9 µM in the assay with COLO 205 colon and over 100 µM in the assay on HCT-116 colon.
